Test results reported in ChEMBL document CHEMBL2380302, “Synthesis of 3-O-propargylated betulinic acid and its 1,2,3-triazoles as potential apoptotic agents” (Eur J Med Chem, 2013).

Assays:
[1] = system: THP-1; test: Cytotoxicity against human THP1 cells after 48 hrs by SRB assay; assay type: functional, cell-based; settings: THP-1, 48 h
[2] = system: PC-3; test: Cytotoxicity against human PC3 cells after 48 hrs by SRB assay; assay type: functional, cell-based; settings: PC-3, 48 h
[3] = system: DU-145; test: Cytotoxicity against human DU145 cells after 48 hrs by SRB assay; assay type: functional, cell-based; settings: DU-145, 48 h
[4] = system: HL-60; test: Cytotoxicity against human HL60 cells at 50 uM after 48 hrs by SRB assay; assay type: functional; settings: HL-60, 48 h, read-out: GI
[5] = system: HEp-2; test: Cytotoxicity against human Hep2 cells at 10 uM after 48 hrs by SRB assay; assay type: functional; settings: HEp-2, 48 h, read-out: GI
[6] = system: SF-295; test: Cytotoxicity against human SF295 cells at 30 uM after 48 hrs by SRB assay; assay type: functional; settings: SF-295, 48 h, read-out: GI
[7] = system: DU-145; test: Cytotoxicity against human DU145 cells at 30 uM after 48 hrs by SRB assay; assay type: functional; settings: DU-145, 48 h, read-out: GI
[8] = system: PC-3; test: Cytotoxicity against human PC3 cells at 30 uM after 48 hrs by SRB assay; assay type: functional; settings: PC-3, 48 h, read-out: GI
[9] = system: A549; test: Cytotoxicity against human A549 cells at 50 uM after 48 hrs by SRB assay; assay type: functional; settings: A549, 48 h, read-out: GI
[10] = system: MCF7; test: Cytotoxicity against human MCF7 cells after 48 hrs by SRB assay; assay type: functional, cell-based; settings: MCF7, 48 h
[11] = system: THP-1; test: Cytotoxicity against human THP1 cells at 10 uM after 48 hrs by SRB assay; assay type: functional; settings: THP-1, 48 h, read-out: GI
[12] = system: HL-60; test: Cytotoxicity against human HL60 cells at 30 uM after 48 hrs by SRB assay; assay type: functional; settings: HL-60, 48 h, read-out: GI
[13] = system: HEp-2; test: Cytotoxicity against human Hep2 cells at 30 uM after 48 hrs by SRB assay; assay type: functional; settings: HEp-2, 48 h, read-out: GI
[14] = system: THP-1; test: Cytotoxicity against human THP1 cells at 30 uM after 48 hrs by SRB assay; assay type: functional; settings: THP-1, 48 h, read-out: GI
[15] = system: HEp-2; test: Cytotoxicity against human Hep2 cells after 48 hrs by SRB assay; assay type: functional, cell-based; settings: HEp-2, 48 h
[16] = system: HCT-15; test: Cytotoxicity against human HCT15 cells at 50 uM after 48 hrs by SRB assay; assay type: functional; settings: HCT-15, 48 h, read-out: GI
[17] = system: SF-295; test: Cytotoxicity against human SF295 cells at 50 uM after 48 hrs by SRB assay; assay type: functional; settings: SF-295, 48 h, read-out: GI
[18] = system: HL-60; test: Cytotoxicity against human HL60 cells at 10 uM after 48 hrs by SRB assay; assay type: functional; settings: HL-60, 48 h, read-out: GI
[19] = system: A549; test: Cytotoxicity against human A549 cells at 10 uM after 48 hrs by SRB assay; assay type: functional; settings: A549, 48 h, read-out: GI
[20] = system: DU-145; test: Cytotoxicity against human DU145 cells at 10 uM after 48 hrs by SRB assay; assay type: functional; settings: DU-145, 48 h, read-out: GI
[21] = system: MCF7; test: Cytotoxicity against human MCF7 cells at 10 uM after 48 hrs by SRB assay; assay type: functional; settings: MCF7, 48 h, read-out: GI
[22] = system: HCT-15; test: Cytotoxicity against human HCT15 cells after 48 hrs by SRB assay; assay type: functional, cell-based; settings: HCT-15, 48 h
[23] = system: MCF7; test: Cytotoxicity against human MCF7 cells at 50 uM after 48 hrs by SRB assay; assay type: functional; settings: MCF7, 48 h, read-out: GI
[24] = system: SF-295; test: Cytotoxicity against human SF295 cells at 10 uM after 48 hrs by SRB assay; assay type: functional; settings: SF-295, 48 h, read-out: GI
[25] = system: HCT-15; test: Cytotoxicity against human HCT15 cells at 30 uM after 48 hrs by SRB assay; assay type: functional; settings: HCT-15, 48 h, read-out: GI
[26] = system: SF-295; test: Cytotoxicity against human SF295 cells after 48 hrs by SRB assay; assay type: functional, cell-based; settings: SF-295, 48 h
[27] = system: A549; test: Cytotoxicity against human A549 cells at 30 uM after 48 hrs by SRB assay; assay type: functional; settings: A549, 48 h, read-out: GI
[28] = system: HEp-2; test: Cytotoxicity against human Hep2 cells at 50 uM after 48 hrs by SRB assay; assay type: functional; settings: HEp-2, 48 h, read-out: GI
[29] = system: THP-1; test: Cytotoxicity against human THP1 cells at 50 uM after 48 hrs by SRB assay; assay type: functional; settings: THP-1, 48 h, read-out: GI
[30] = system: A549; test: Cytotoxicity against human A549 cells after 48 hrs by SRB assay; assay type: functional, cell-based; settings: A549, 48 h
[31] = system: HCT-15; test: Cytotoxicity against human HCT15 cells at 10 uM after 48 hrs by SRB assay; assay type: functional; settings: HCT-15, 48 h, read-out: GI
[32] = system: MCF7; test: Cytotoxicity against human MCF7 cells at 30 uM after 48 hrs by SRB assay; assay type: functional; settings: MCF7, 48 h, read-out: GI
[33] = system: DU-145; test: Cytotoxicity against human DU145 cells at 50 uM after 48 hrs by SRB assay; assay type: functional; settings: DU-145, 48 h, read-out: GI
[34] = system: PC-3; test: Cytotoxicity against human PC3 cells at 10 uM after 48 hrs by SRB assay; assay type: functional; settings: PC-3, 48 h, read-out: GI
[35] = system: HL-60; test: Cytotoxicity against human HL60 cells after 48 hrs by SRB assay; assay type: functional, cell-based; settings: HL-60, 48 h
[36] = system: PC-3; test: Cytotoxicity against human PC3 cells at 50 uM after 48 hrs by SRB assay; assay type: functional; settings: PC-3, 48 h, read-out: GI

`C=C(C)[C@@H]1CC[C@]2(C(=O)O)CC[C@]3(C)[C@H](CC[C@@H]4[C@@]5(C)CC[C@H](OCc6cn(-c7cc(I)ccc7C)nn6)C(C)(C)[C@@H]5CC[C@]43C)[C@@H]12` was tested, and the IC50 [1] was 22 µM, the IC50 [2] was > 50 µM and the IC50 [3] was 39 µM. The inhibition of growth at 50 µM [4] was 97%, the inhibition of growth at 10 µM [5] was 7% and the inhibition of growth at 30 µM [6] was 20%. It also gave an inhibition of growth at 30 µM [7] of 41%, an inhibition of growth at 30 µM [8] of 22% and an inhibition of growth at 50 µM [9] of 67%. For the same molecule, the IC50 [10] was 27 µM, the inhibition of growth at 10 µM [11] was 38% and the inhibition of growth at 30 µM [12] was 60%. For the same molecule, the inhibition of growth at 30 µM [13] was 14%, the inhibition of growth at 30 µM [14] was 56% and the IC50 [15] was > 50 µM. The inhibition of growth at 50 µM [16] was 34%, the inhibition of growth at 50 µM [17] was 35% and the inhibition of growth at 10 µM [18] was 40%. For the same molecule, the inhibition of growth at 10 µM [19] was 43%, the inhibition of growth at 10 µM [20] was 24% and the inhibition of growth at 10 µM [21] was 30%. The IC50 [22] was > 50 µM, the inhibition of growth at 50 µM [23] was 74% and the inhibition of growth at 10 µM [24] was 8%. The inhibition of growth at 30 µM [25] was 25%, the IC50 [26] was > 50 µM and the inhibition of growth at 30 µM [27] was 53%. The inhibition of growth at 50 µM [28] was 25%, the inhibition of growth at 50 µM [29] was 96% and the IC50 [30] was 23 µM. It also gave an inhibition of growth at 10 µM [31] of 9%, an inhibition of growth at 30 µM [32] of 54% and an inhibition of growth at 50 µM [33] of 65%. The inhibition of growth at 10 µM [34] was 5%, the IC50 [35] was 18 µM and the inhibition of growth at 50 µM [36] was 4%.
In the case of `C=C(C)[C@@H]1CC[C@]2(C(=O)O)CC[C@]3(C)[C@H](CC[C@@H]4[C@@]5(C)CC[C@H](OCc6cn(-c7cccc(I)c7)nn6)C(C)(C)[C@@H]5CC[C@]43C)[C@@H]12`, the IC50 [1] is reported as 46 µM, the IC50 [2] is reported as 39 µM and the IC50 [3] is reported as 25 µM. For the same molecule, the inhibition of growth at 50 µM [4] was 64%, the inhibition of growth at 10 µM [5] was 71% and the inhibition of growth at 30 µM [6] was 27%. For the same molecule, the inhibition of growth at 30 µM [7] was 62%, the inhibition of growth at 30 µM [8] was 24% and the inhibition of growth at 50 µM [9] was 33%. The IC50 [10] was 8 µM, the inhibition of growth at 10 µM [11] was 9% and the inhibition of growth at 30 µM [12] was 45%. It also gave an inhibition of growth at 30 µM [13] of 74%, an inhibition of growth at 30 µM [14] of 41% and an IC50 [15] of 3.8 µM. The inhibition of growth at 50 µM [16] was 54%, the inhibition of growth at 50 µM [17] was 66% and the inhibition of growth at 10 µM [18] was 13%. It also gave an inhibition of growth at 10 µM [19] of 28%, an inhibition of growth at 10 µM [20] of 23% and an inhibition of growth at 10 µM [21] of 51%. The IC50 [22] was 39 µM, the inhibition of growth at 50 µM [23] was 61% and the inhibition of growth at 10 µM [24] was 6%. For the same molecule, the inhibition of growth at 30 µM [25] was 45%, the IC50 [26] was 44 µM and the inhibition of growth at 30 µM [27] was 27%. For the same molecule, the inhibition of growth at 50 µM [28] was 72%, the inhibition of growth at 50 µM [29] was 56% and the IC50 [30] was > 50 µM. For the same molecule, the inhibition of growth at 10 µM [31] was 29%, the inhibition of growth at 30 µM [32] was 58% and the inhibition of growth at 50 µM [33] was 62%. It also gave an inhibition of growth at 10 µM [34] of 8%, an IC50 [35] of 43 µM and an inhibition of growth at 50 µM [36] of 27%.
